Assays:
TcPRAC = molecular target: T1, TcPRAC (Trypanosoma cruzi, UniProt Q4DA80); test: L-proline racemization assay, formed D-proline determined by DAAOx test; assay type: biochemical; conditions: ligand 10 µM; 10 mM L-proline; 22.4 mg/ml TcPRAC; 5.0mM without ligand
T1 construct: implied only by nickel IMAC purification; made in house; host or cells: E. coli BL21 (DE3)
Experimental: Briefly, classical assays of Proline racemization induced by TcPRAC were performed in tubes in a final volume of 1.5 ml and optical rotations measured in a polarimeter 241MC (Perkin Elmer). Parallel assays of Proline racemization were transposed into microplates in a final volume of 100 µl, as follows: serial dilutions of L- Proline ranging from 40 mM to 2.5 mM were prepared in 0.2 M sodium acetate pH 6.0 containing 0.25 mM rTcPRAC and loaded into microplate wells in the presence or in the absence of 0 - 20 µM pyrrole-2 carboxylic acid (PYC) or of similar dilutions of unknown potential inhibitors. Specific control wells were included omitting the TcPRAC and/or the PYC.
Microplates were incubated for 30 minutes at 37° C. Enzyme activity was then inactivated by heating the plate for 15 seconds in a microwave oven at 900 watts after shifting the pH of wells to 8.3 by addition of 6.8 µl of 0.235 M sodium Pyrophosphate. 50 µl of each well were used to test the presence of D-Proline using the DAAOx (D-amino acid oxidase) test described below. L- amino acids may react at very low rate with DAAOx. For instance, DAAOx reacts with L-Proline 300 times slower than D-Proline. Consequently, when assessing amino acid racemization products, standards should consist of serial dilution of equimolar mixtures of specific D- and L-amino acids ranging from 0 to 20 mM (10 mM final) to take into account any interference of possible reactivity with DAAOx of the L- form of amino acids present in the samples.
Solution A consisting of 0.2 M sodium acetate/0.016 M sodium pyrophosphate (Pop) buffer, pH 8.3 was used to prepare the enzyme stock solutions conserved in 50% glycerol, namely: 50 U/ml D-amino acid oxidase from pig kidney (DAAOx, Sigma) and 5000 U/ml Horse Raddish Peroxydase (HRP, Sigma). Stock solutions of L- proline (1M), D- proline (1M) and Pyrrole-2-carboxylic acid (10 mM) (PYC, Sigma) are also prepared in solution A. 10^-1 M FAD (Sigma) stock was prepared in water. Solution B consists in adding to solution A the following reagents at a final concentration in the assay of 1 U/ml for DAAOx, 0.5 mg/ml orthophenylenediamine (OPD, Sigma), 37.5 U/ml HRP and FAD (1.5x10^-5 M FAD). The test is run in 96 wells micro plates (Nunc, Denmark). […] OD 490nm - 650nm is obtained with a microtiter plate reader (Molecular Devices), and compared to those obtained with blank control wells.
The values presented in Table 2A correspond to racemization reactions performed in the absence or in the presence of 10 µM concentration of the different ligands. […] Briefly, 22.4 mg/ml of active TcPRAC was used in the racemization assays of 10 mM L-proline substrate and the concentration of formed D-proline was determined by the DAAOx test, as described in the Material and Methods. […]

Vero cells = test: Toxicity for Vero cells, Trypan Blue exclusion; assay type: cell-based, green monkey; conditions: 10 µM, 48h
Experimental: Finally both the compounds OxoPA and Br-OxoPA were tested at a concentration of 10 µM for toxicity of Vero cells for 48h. Both compounds are not toxic as evaluated by Trypan Blue exclusion (not shown).

T. cruzi = test: Capture ELISA of Vero cultures infected 17h with or without inhibitor; assay type: cell-based, Trypanosoma cruzi; conditions: 17h at 37°C, 10:1 parasite/cell ratio; 0-30 mM OxoPA, Br-OxoPA or 10-1000 µM PYC in DMSO; Fig. 9
Experimental: Flat-bottomed microtiter plates (Nunc, Denmark) were coated overnight at 4°C with rabbit anti-T. cruzi polyclonal antibodies and further blocked for 4 h at room temperature (RT) with 1% BSA, 0.05% Tween 20 in PBS. After washings, lysate samples from infected or control Vero cultures, or from T. cruzi, were then added and incubated at 4°C for 18h. Plates were washed with PBS-Tween and incubated for 2h at RT with polyclonal mouse anti-T. cruzi chronic serum, washed again and incubated for 1 h at RT with HRP-secondary antibodies. […] Optical densities were determined in a spectrophotometer at 450 nm and 650 nm and analyzed using Softmax Pro software.
To confirm the effect of the inhibitors in the initial steps of the host-parasite interaction, cultures were infected for 17h at 37°C at a 10:1 parasite/cell ratio with or without increasing doses of freshly prepared dilutions (0-30 mM) of OxoPA, Br-OxoPA (15), or (10-1000 µM) of PYC, previously dissolved in DMSO and further analyzed by capture ELISA (see methods and Fig. 9). […] Three ongoing studies were performed to determine whether TcPRAC inhibition by the new compounds affects parasite intracellular fate. To do this, host cells were infected for 17 hours then washed and different ligand concentrations (5 mM, 10 mM, 30, 100 mM) were added to the medium. The degree of infection was determined over 48 hours by capture ELISA. The number of parasites per well decreased in a dose-dependent manner (Fig. 7). These experiments indicate that TcPRAC inhibition by OxoPA and Br-OxoPA affects both cellular infection by T. cruzi and parasite development in tissues.

T1 sequence (Q4DA80 32-423): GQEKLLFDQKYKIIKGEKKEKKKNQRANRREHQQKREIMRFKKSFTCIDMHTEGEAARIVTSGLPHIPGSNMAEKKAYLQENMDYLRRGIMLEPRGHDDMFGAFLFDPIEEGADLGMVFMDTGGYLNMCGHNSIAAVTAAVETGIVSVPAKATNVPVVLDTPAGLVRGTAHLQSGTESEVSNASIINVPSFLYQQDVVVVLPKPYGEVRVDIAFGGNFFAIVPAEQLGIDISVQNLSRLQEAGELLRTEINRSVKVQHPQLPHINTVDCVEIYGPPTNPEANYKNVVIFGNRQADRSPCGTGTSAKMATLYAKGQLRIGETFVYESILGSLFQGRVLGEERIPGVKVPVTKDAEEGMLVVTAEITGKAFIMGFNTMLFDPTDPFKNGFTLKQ

SMILES	Formed D-Proline (TcPRAC)	toxicity of Vero cells (Vero cells)	inhibition of cellular infection (T. cruzi)
O=C(O)/C=C/C(=O)CBr [Br-OxoPA, (E)-5-bromo-4-oxopent-2-enoic acid]	< 0,3 mM	not toxic	a clear dose dependent inhibition of cellular infection
CC(=O)/C=C/C(=O)O [OxoPA, (E)-4-oxopent-2-enoic acid]	< 0,3 mM	not toxic	a clear dose dependent inhibition of cellular infection

— EP2451450B1, “Inhibitors of proline racemase enzymes for the treatment of Trypanosoma spp infections” (Institut Pasteur, priority 2009, dated 2011)
